Our source for the EC50 and viability values is patent US10577362B2, “Substituted 2, 4-diamino-quinoline derivatives for use in the treatment of proliferative diseases” (GENOSCIENCE PHARMA, priority 2016, dated 2020).

The structures appear in SMILES notation.

In assay [1] the test system is 786-O (renal adenocarcinoma) cell line. Description: CellTiter-Glo luminescent cell viability assay, 786-O. The assay is classed as cell-based, human. The conditions noted are these: Homo sapiens, 786-0; for EC50: 786-O cell line, 72 h incubation, CellTiter-Glo, read-out: EC50, growth inhibition of 786-O; for viability at 4 µM / viability at 10 µM: 786-O, 72 h; for viability at 4 µM: compound at 4 μM; for viability at 10 µM: compound at 10 μM. The method, boiled down: (§1)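 Luminescent signal, normalised to diluent-treated cultures, defines % viability; EC50 is the concentration lowering it to 50%. Cells had been exposed to compound for 72 h at 37 °C in medium with 10% FBS, at a constant H2O or DMSO percentage.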

The test system of assay [2] is MOLM-14 (acute myeloid leukemia) cell line. Description: CellTiter-Glo luminescent cell viability assay, MOLM-14. Type of assay: cell-based, human. The conditions noted are these: Homo sapiens; for viability at 4 µM: MOLM-14, compound at 4 μM; for viability at 4 µM / viability at 10 µM: 72 h; for viability at 10 µM: MOLM-14, compound at 10 μM; for EC50: MOLM-14 cell line, 72 h incubation, CellTiter-Glo, read-out: EC50, growth inhibition of MOLM-14. A digest of the protocol: (§2)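 72 h compound exposure, 37 °C, 5% CO2, 10% FBS medium; ATP luminescence read after 30 min RT equilibration. Viability as % of H2O/DMSO diluent control; EC50 = dose giving 50% of control signal. Duplicate points minimum.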

The subject of assay [3] is HCT-116 (colorectal carcinoma) cell line. Description: CellTiter-Glo luminescent cell viability assay, HCT-116. Type of assay: cell-based, human. Particulars: Homo sapiens; for viability at 4 µM: HCT-116, compound at 4 μM; for viability at 4 µM / viability at 10 µM: 72 h; for viability at 10 µM: HCT-116, compound at 10 μM; for EC50: HCT-116 cell line, 72 h incubation, CellTiter-Glo, read-out: EC50, growth inhibition of HCT-116. The method, boiled down:
as §1

Assay [4] has as its system HepG2 (hepatocellular carcinoma) cell line. Description: CellTiter-Glo luminescent cell viability assay, HepG2. Type of assay: cell-based, human. The conditions noted are these: Homo sapiens; for viability at 4 µM / viability at 10 µM: HepG2, HepG, 72 h; for viability at 4 µM: compound at 4 μM; for viability at 10 µM: compound at 10 μM; for EC50: HepG2 cell line, 72 h incubation, CellTiter-Glo, read-out: EC50, growth inhibition of HepG2. A digest of the protocol: as §2

Assay [5] concerns Huh7 (hepatocellular carcinoma) cell line. Description: CellTiter-Glo luminescent cell viability assay, Huh7. Type of assay: cell-based, human. Particulars: Homo sapiens, Huh-7; for viability at 4 µM: Huh7, compound at 4 μM; for viability at 4 µM / viability at 10 µM: 72 h; for viability at 10 µM: Huh7, compound at 10 μM; for EC50: Huh7 cell line, 72 h incubation, CellTiter-Glo, read-out: EC50, growth inhibition of Huh7. A digest of the protocol: as §2

For assay [6], the system named is PANC-1 (prancreatic carcinoma) cell line. Description: CellTiter-Glo luminescent cell viability assay, PANC-1. The assay is classed as cell-based. The conditions noted are these: Homo sapiens; for viability at 4 µM: PANC-1, 4 μM; for viability at 4 µM / viability at 10 µM: 72 h, % of signal of diluent-treated cultures; for viability at 10 µM: PANC-1, 10 μM; for EC50: PANC-1 cell line, 72 h incubation, CellTiter-Glo, read-out: EC50 (growth inhibition assay of PANC-1 cell line). The method, boiled down: as §2

Assay [7] concerns A375 (malignant melanoma) cell line. Description: CellTiter-Glo luminescent cell viability assay, A375. Type of assay: cell-based, human. Particulars: Homo sapiens, A-375; for viability at 4 µM: A375, compound at 4 μM; for viability at 4 µM / viability at 10 µM: 72 h; for viability at 10 µM: A375, compound at 10 μM; for EC50: A375 cell line, 72 h incubation, CellTiter-Glo, read-out: EC50, growth inhibition of A375. A digest of the protocol:
as §1

As to `CN(C)C1CCN(c2c(C#N)c(NCc3ccc(Cl)cc3)nc3ccccc23)CC1` [Compound 3184CN, 2-(4-chlorobenzylamino)-3-cyano-4-[4-(dimethylamino)piperidin-1-yl]quinoline], the EC50 in assay [1] is 0.5 to 5 µM; in assay [2], 0.5 to 5 µM; in assay [3], 0.5 to 5 µM; in assay [4], 0.5 to 5 µM; in assay [5], 5 to 10 µM; in assay [6], 5 to 10 µM. The EC50 in assay [7] fell in the range of 0.5 to 5 µM. Moreover, the viability at 4 µM in assay [1] turned out to be 54.1%; in assay [2], 71.8%; in assay [3] it was 60.5%; in assay [4], 72.9%; in assay [5] it was 77.4%; in assay [6], 90.7%. Moreover, the viability at 4 µM in assay [7] turned out to be 59.5%. Further, the viability at 10 µM in assay [1] stood at 0.7%; in assay [2], 0.6%; in assay [3], 0.5%; in assay [4], 0.7%; in assay [5], 0.6%; in assay [6], 24.1%. Further, the viability at 10 µM in assay [7] is 0.5%.
In the case of `Cn1cc(Nc2nc3ccccc3c(N3CCC(NC(C)(C)C)CC3)c2C#N)cn1` [Compound 3268CN, 2-[(1-methyl-1H-pyrazol-4-yl)amino]-3-cyano-4-[4-(tert-butylamino)piperidin-1-yl]quinoline], the viability at 4 µM in assay [1] is 109%; in assay [2] it was 91%; in assay [3], 73.7%; in assay [4], 68.6%; in assay [5], 94%; in assay [6] it was 95.8%. Further, the viability at 4 µM in assay [7] was determined as 61.8%. The viability at 10 µM in assay [1] was determined as 80.1%; in assay [2], 77.6%; in assay [3] it was 22.6%; in assay [4], 56%; in assay [5], 64.8%; in assay [6], 43.6%. Also, in assay [7], the viability at 10 µM worked out at 11.3%.
Turning to `CC(C)(C)NC1CCN(c2c(C#N)c(Nc3ccccn3)nc3ccccc23)CC1` [Compound 3278CN, 2-(pyridin-2-ylamino)-3-cyano-4-[4-(tert-butylamino)piperidin-1-yl]quinoline], the viability at 4 µM in assay [1] stood at 90.2%; in assay [2], 96.1%; in assay [3], 85.7%; in assay [4], 87.1%; in assay [5], 95%; in assay [6], 102%. The viability at 4 µM in assay [7] turned out to be 90.6%. Further, the viability at 10 µM worked out at 68.2% in assay [1]; 88.6% in assay [2]; 7.2% in assay [3]; 53.2% in assay [4]; 51% in assay [5]; 84.2% in assay [6]. Also, the viability at 10 µM in assay [7] stood at 45.2%.
Consider `N#Cc1c(NCc2ccc(Cl)cc2)nc2ccccc2c1N1CCCC(NC2CCCC2)C1` (stereo not shown) [Compound 162CN, 2-(4-chlorobenzylamino)-3-cyano-4-[3-(cyclopentylamino)piperidin-1-yl]quinoline], for which the EC50 in assay [1], in assay [2], in assay [3], in assay [4], in assay [5] and in assay [7] was 0.5 to 5 µM throughout. The viability at 4 µM was 12% in assay [1]; 45.6% in assay [2]; 0.8% in assay [3]; 0.3% in assay [4]; 37.1% in assay [5]; 75.3% in assay [6]. For the same compound, the viability at 4 µM in assay [7] came out at 0.4%. For the same compound, the viability at 10 µM stood at 0.2% in assay [1]; 0.3% in assay [2]; 0.1% in assay [3]; 0.1% in assay [4]; 0.2% in assay [5]; 0.8% in assay [6]. Also, the viability at 10 µM in assay [7] was found to be 0.2%.
In the case of `CC(C)(C)NC1CCN(c2c(C#N)c(Nc3ccncn3)nc3ccccc23)CC1` [Compound 3282CN, 2-(pyrimidin-4-ylamino)-3-cyano-4-[4-(tert-butylamino)piperidin-1-yl]quinoline], the viability at 4 µM in assay [1] amounted to 102%; in assay [2], 93.3%; in assay [3], 73.7%; in assay [4], 58.9%; in assay [5] it was 97.9%; in assay [6], 102%. Besides, in assay [7], the viability at 4 µM amounted to 88.6%. Also, the viability at 10 µM in assay [1] is 76.9%; in assay [2], 63.5%; in assay [3], 39.8%; in assay [4] it was 40.3%; in assay [5], 75.4%; in assay [6], 77.3%. Also, the viability at 10 µM in assay [7] came to 64.1%.
As to `CC(C)(C)NC1CCN(c2c(C#N)c(NCc3ccc(F)cc3)nc3ccccc23)CC1` [Compound 240CN, 2-(4-fluorobenzylamino)-3-cyano-4-[4-(tert-butylamino)piperidin-1-yl]quinoline], the concentration for a half-maximal effect (EC50) lay in the range of 5 to 10 µM in assay [1]; 5 to 10 µM in assay [2]; 0.5 to 5 µM in assay [3]; 0.5 to 5 µM in assay [4]; 0.5 to 5 µM in assay [5]; 5 to 10 µM in assay [6]. Moreover, the EC50 in assay [7] was in the range of 0.5 to 5 µM. For the same compound, the viability at 4 µM in assay [1] turned out to be 77.2%; in assay [2] it was 100%; in assay [3] it was 55.2%; in assay [4], 86.7%; in assay [5], 80%; in assay [6], 98.3%. For the same compound, the viability at 4 µM in assay [7] is 64.5%. Also, the viability at 10 µM in assay [1] stood at 0.7%; in assay [2], 0.5%; in assay [3], 0.3%; in assay [4], 0.4%; in assay [5], 0.4%; in assay [6], 30%. In addition, in assay [7], the viability at 10 µM worked out at 0.3%.
As for `CN1CCN(C2CCN(c3c(C#N)c(NCc4ccc(Cl)cc4)nc4ccccc34)C2)CC1` (stereo not shown) [Compound 3200CN, 2-(4-chloro-benzylamino)-3-cyano-4-[3-(4-methylpiper-azin-1-yl)pyrro-lidin-1-yl] quinoline], the EC50 in assay [1], in assay [2], in assay [3], in assay [4], in assay [5] and in assay [7] was 5 to 10 µM in each case. In addition, the viability at 4 µM in assay [1] is 41.7%; in assay [2] it was 97.1%; in assay [3], 35.1%; in assay [4], 71.8%; in assay [5], 80.6%; in assay [6] it was 90.2%. For the same compound, the viability at 4 µM in assay [7] is 47.3%. Besides, the viability at 10 µM in assay [1] was 0.4%; in assay [2] it was 0.4%; in assay [3], 0.4%; in assay [4] it was 0.3%; in assay [5], 0.4%; in assay [6], 38.4%. Moreover, the viability at 10 µM in assay [7] is 0.3%.
